Paper PMC2374418, “A prolonged methoxymorpholino doxorubicin (PNU-152243 or MMRDX) infusion schedule in patients with solid tumours: a phase 1 and pharmacokinetic study” (British Journal of Cancer, 2000)

Columns and labels:
[1] = design: method as in ref Johnston and Glazer, 1983; Acton et al, 1984; Streeter et al, 1986; details: ref Johnston and Glazer, 1983; Acton et al, 1984; Streeter et al, 1986; cited from earlier work
[2] = test system: MDR xenografts; design: method as in Ripamonti et al, 1992; details: animal studies, ref Ripamonti et al, 1992; cited from earlier work
[3] = test system: rats; design: method as in Danesi et al, 1993; details: ref Danesi et al, 1993; cited from earlier work
[4] = test system: patients with various intrinsically anthracycline resistant solid tumours; details: 1998, cited from earlier work
[5] = test system: intrinsically anthracycline-resistant tumours; assay: Tumour response according to WHO criteria; format: in vivo, human; details: 3 h i.v. infusion, 1.0-1.5 mg m-2, 13 evaluable patients
Text: Nowadays, anthracyclines play an important role in chemothera- peutic treatment of a wide variety of tumour types. The clinical use of anthracyclines is limited by their toxicity profile, especially irreversible, cumulative dose-related cardiotoxicity, and by intrinsic or acquired resistance of tumours cells. Mechanisms of this resistance consist of several pathways, such as overexpression of drug efflux pumps (i.e. P-glycoprotein), decrease in topoiso- merase II enzyme levels, and increase in cellular detoxifying capacity (Kaye and Merry, 1985; Deffie et al, 1989; de Jong et al, 1990; Ford and Hait, 1990; Roninson, 1997). Morpholinyl anthracyclines, such as methoxymorpholino doxorubicin (MMRDX or PNU-152243), were synthesized in search for new anthracyclines with at least partially novel modes of action, including activity on multidrug-resistant (MDR) tumours. MMRDX is a novel doxorubicin derivative in which the nitrogen atom of the daunosamine is enclosed in a methoxymor- pholino ring (Figure 1). […] The working mechanism of morpholinyl anthracyclines appears to be different from other anthracyclines. Morpholinyl anthracyclines inhibit ribosomal gene transcription as well as topoisomerase I-mediated DNA-cleavage (Wassermann et al, 1988, 1990). […] In addition, we assessed pharmacokinetics of prolonged MMRDX-infusion. […]

[6] = Pharmacokinetics in plasma and urine, first cycle, non-compartmental analysis
Text: (§1) Nowadays, anthracyclines play an important role in chemothera- peutic treatment of a wide variety of tumour types. The clinical use of anthracyclines is limited by their toxicity profile, especially irreversible, cumulative dose-related cardiotoxicity, and by intrinsic or acquired resistance of tumours cells. Mechanisms of this resistance consist of several pathways, such as overexpression of drug efflux pumps (i.e. P-glycoprotein), decrease in topoiso- merase II enzyme levels, and increase in cellular detoxifying capacity (Kaye and Merry, 1985; Deffie et al, 1989; de Jong et al, 1990; Ford and Hait, 1990; Roninson, 1997). Morpholinyl anthracyclines, such as methoxymorpholino doxorubicin (MMRDX or PNU-152243), were synthesized in search for new anthracyclines with at least partially novel modes of action, including activity on multidrug-resistant (MDR) tumours. MMRDX is a novel doxorubicin derivative in which the nitrogen atom of the daunosamine is enclosed in a methoxymor- pholino ring (Figure 1). […] The working mechanism of morpholinyl anthracyclines appears to be different from other anthracyclines. Morpholinyl anthracyclines inhibit ribosomal gene transcription as well as topoisomerase I-mediated DNA-cleavage (Wassermann et al, 1988, 1990). […] Metabolic conversion of MMRDX by human liver microsomes and NADPH potentiated the cytotoxicity in an ovarian carcinoma cell line (Lau et al, 1994). […] Therefore, we decided to perform a phase I study with MMRDX administered as a 3 h infusion every 4 weeks in order to try to increase the MTD as compared with bolus administration. In addition, we assessed pharmacokinetics of prolonged MMRDX-infusion. A prolonged methoxymorpholino doxorubicin (PNU- 152243 or MMRDX) infusion schedule in patients with solid tumours: a phase 1 and pharmacokinetic study E Fokkema1 , J Verweij2 , AT van Oosterom3 , DRA Uges1 , R Spinelli4 , O Valota4 , EGE de Vries1 and HJM Groen1 1 Department of Pulmonology, Department of Pharmacy, Department of Internal Medicine, University Hospital Groningen, PO Box 30.001, 9700 RB Groningen, The Netherlands; 2 Rotterdam Cancer Institute and University Hospital, Rotterdam, The Netherlands; 3 University Hospital Leuven, Belgium; 4 Pharmacia & Upjohn, Milan, Italy Summary The aim of this phase I study was to assess feasibility, pharmacokinetics and toxicity of methoxymorpholino doxorubicin (MMRDX or PNU-152243) administered as a 3 h intravenous infusion once every 4 weeks. […] The first cohort of patients was treated with 1 mg m-2 of MMRDX. The next cohorts received 1.25 mg m-2 and 1.5 mg m-2 respectively. […] (c) 2000 Cancer Research Campaign Keywords: methoxymorpholino doxorubicin; pharmacokinetics; phase I study 767 Received 6 January 1999 Revised 2 August 1999 Accepted 25 August 1999 Correspondence to: EGE de Vries British Journal of Cancer (2000) 82(4), 767-771 (c) 2000 Cancer Research Campaign DOI: 10.1054/ bjoc.1999.0996, available online at http://www.idealibrary.com on PATIENTS AND METHODS Patients The study was performed between December 1994 and June 1996. Patients with intrinsic anthracycline-resistant tumours were accrued in three different centres in Belgium and The Netherlands.

[7] = test system: patients with intrinsic anthracycline-resistant tumours; assay: Phase I toxicity (CTC grading), MMRDX as 3 h intravenous infusion once every 4 weeks
Text: as §1

For `COc1cccc2c1C(=O)c1c(O)c3c(c(O)c1C2=O)C[C@@](O)(C(=O)CO)C[C@@H]3O[C@H]1C[C@H](N2CCO[C@H](OC)C2)[C@H](O)[C@H](C)O1` [MMRDX, methoxymorpholino doxorubicin], the Lipophilicity [1] is given as “high lipophilicity”, the “Activity against MDR xenografts” value [2] is given as “showed activity” and the Cardiotoxicity in rats [3] is given as “no substantial cardiotoxicity”. The “Grade IV neutropenia” value ([4]; 1.5 mg m-2 bolus every 4 weeks, ref Bakker et al) was 9 % of administered cycles, the Tumour responses ([4]; NSCLC, ref Bakker et al) was “one partial response in one out of 17 NSCLC” and the Plasma clearance ([4]; bolus, ref Bakker et al) was 620 ml min-1 m-2. For the same compound, the “t1/2 of the elimination phase” value ([4]; bolus, ref Bakker et al) was 49 h, the “Patients taken off study due to a decrease in LVEF” value ([4]; phase II study, ref Vasey et al, 1995, Bakker et al) was “two patients” and the Tumour responses [5] was “No tumour response”. For the same compound, the “% Dose in urine, median (range)” value ([6]; 1.0 mg m-2 (n = 3)) was 1.6 (0.53-1.74) %, the “% Dose in urine, median (range)” value ([6]; 1.25 mg m-2 (n = 6)) was 2.1 (0.35-2.6) % and the “Cl (plasma clearance), median (range)” value ([6]; 1.25 mg m-2, n = 4) was 649.0 (506.3-812.3) ml min-1 m-2. The “Vss, median (range)” value ([6]; 1.25 mg m-2, n = 4) was 2891.5 (1742-3371) l m-2, the “Vz, median (range)” value ([6]; 1.25 mg m-2, n = 4) was 3942.5 (1997-4540) l m-2 and the “t1/2 z (printed 'tA z'), median (range)” value ([6]; 1.25 mg m-2, n = 4) was 60.9 (45.6-88.8) h. The “% Dose in urine, median (range)” value ([6]; 1.5 mg m-2 (n = 3)) was 2.47 (1.71-2.49) %, the “Cl (plasma clearance), median (range)” value ([6]; 1.5 mg m-2, n = 2) was 741.2 (659-823.2) ml min-1 m-2 and the “Vss, median (range)” value ([6]; 1.5 mg m-2, n = 2) was 2693.0 (2585-2801) l m-2. The “Vz, median (range)” value ([6]; 1.5 mg m-2, n = 2) was 2908.5 (2574-3243) l m-2, the “t1/2 z (printed 'tA z'), median (range)” value ([6]; 1.5 mg m-2, n = 2) was 46.5 (36.1-56.9) h and the Renal excretion ([6]; 3 h i.v. infusion) was “negligible”. For the same compound, the “Correlation between AUC0-tz or Cmax and nadirs of haemoglobin, platelets, leucocytes and neutrophils” value ([6]; pharmacodynamic analysis, linear regression, first cycle) was “no correlation”, the “AUC 0-tz, median (range)” value ([6]; plasma, 1.0 mg m-2 (n = 3)) was 9.4 (8.3-18.3) ng h ml-1 and the “Cmax, median (range)” value ([6]; plasma, 1.0 mg m-2 (n = 3)) was 2.8 (1.8-6.2) ng ml-1. For the same compound, the “Cmax, one patient with high value” ([6]; plasma, 1 mg m-2, one patient) was 6.17 ng/mL, the “AUC 0-tz, median (range)” value ([6]; plasma, 1.25 mg m-2 (n = 6)) was 15.1 (10.1-30.4) ng h ml-1 and the “Cmax, median (range)” value ([6]; plasma, 1.25 mg m-2 (n = 6)) was 2.3 (1.1-2.7) ng ml-1. The “AUC 0-tz, median (range)” value ([6]; plasma, 1.5 mg m-2 (n = 3)) was 21.4 (5.7-26.9) ng h ml-1, the “Cmax, median (range)” value ([6]; plasma, 1.5 mg m-2 (n = 3)) was 1.4 (1.2-2.1) ng ml-1 and the “Cmax, all other patients” value ([6]; plasma, all dose levels) was “around 2.0 ng ml-1”. For the same compound, the “AUC0-infinity from non-compartmental analysis” value ([6]; similar for all dose levels, seven patients) was “around 30 ng h ml-1”, the Non-haematological toxicity ([7]; 1 mg m-2) was “did not exceed CTC grade II” and the “Median (range) nadir of leucocytes over all evaluable cycles” value ([7]; 1.0 mg m-2) was 6.0 (3.9-15.1) x 109 l-1. The “Median (range) nadir of neutrophils over all evaluable cycles” value ([7]; 1.0 mg m-2) was 3.3 (2.4-12.7) x 109 l-1, the “Median (range) nadir of platelets over all evaluable cycles” value ([7]; 1.0 mg m-2) was 197 (130-356) x 109 1-1 and the “Neutrophils, CTC grade III toxicity” value ([7]; 1.0 mg m-2, 7 cycles) was 0 % of total number of cycles. For the same compound, the “Neutrophils, CTC grade IV toxicity” value ([7]; 1.0 mg m-2, 7 cycles) was 0 % of total number of cycles, the “Leucocytes, CTC grade III toxicity” value ([7]; 1.0 mg m-2, 8 cycles) was 0 % of total number of cycles and the “Leucocytes, CTC grade IV toxicity” value ([7]; 1.0 mg m-2, 8 cycles) was 0 % of total number of cycles. The “Platelets, CTC grade III toxicity” value ([7]; 1.0 mg m-2, 8 cycles) was 0 % of total number of cycles, the “Platelets, CTC grade IV toxicity” value ([7]; 1.0 mg m-2, 8 cycles) was 0 % of total number of cycles and the “Median (range) nadir of leucocytes over all evaluable cycles” value ([7]; 1.25 mg m-2) was 2.7 (1.0-10.4) x 109 l-1. The “Median (range) nadir of neutrophils over all evaluable cycles” value ([7]; 1.25 mg m-2) was 1.9 (0.5-8.3) x 109 l-1, the “Median (range) nadir of platelets over all evaluable cycles” value ([7]; 1.25 mg m-2) was 190 (60-328) x 109 1-1 and the “Nausea, vomiting and diarrhoea exceeding grade II” value ([7]; 1.25 mg m-2) was “one cycle”. For the same compound, the “Transient elevations in total bilirubin reaching CTC grade II” value ([7]; 1.25 mg m-2) was 2/15 and the “Leucocytes, CTC grade III toxicity” value ([7]; 1.25 mg m-2, 17 cycles) was 6 % of total number of cycles.
